# Experimental data taken from patent publication US8853409B2, “Pyridin-2yl-amino-1, 2, 4-thiadiazole derivatives as glucokinase activators for the treatment of diabetes mellitus” (Array BioPharma Inc., priority 2007, dated 2014).
# Test: Mouse PK study (oral pharmacokinetics)
# Format: in vivo
# Settings: male, 10 mg/kg, CD-1 mice, plasma, read-out: AUC indicator (oral AUC)
# Description: Oral pharmacokinetics of each of the compounds shown in Table 1 (“test compound”) were determined as follows.
# Test compound was formulated in PEG400:ethanol:saline (40:20:40, by volume) for IV administration and in 30% Captisol in water for both IV and PO administration in CD-1 mice. Labetalol was used as an internal standard for the LC-MS/MS assay of the CD-1 mouse samples.
# Adult male CD-1 mice were obtained from Charles River Laboratories in Portage, Mich. At the time of study-start, each CD-1 mouse weighed approximately 30 grams and was between the ages of 7-9 weeks. All CD-1 mice were acclimated to the Array BioPharma Inc. vivarium for at least 5 days prior to administration of an IV dose by way of a tail vein injection (5 mL/kg) or a PO dose by oral gavage (10 mL/kg).
# Animals were euthanized by CO2 inhalation and blood samples were collected by cardiac puncture into syringes containing a 1.5% EDTA solution in water (w/v; pH was titrated to 7.4 with 5 N NaOH; the final ratio of blood to EDTA was approximately […]) as the anticoagulant. Plasma was harvested from blood samples by centrifugation and stored at −20° C. until analysis. The following time points were collected for the IV arm: 0.017, 0.083, 0.25, 0.5, 1, 2, 4, 8, 12 and 24 hours post dose. The following time points were collected for the PO arm: 0.25, 0.50, 1, 4, 8, and 24 hours post dose.
# Protein was precipitated from 20 μL of mouse plasma with the addition of 200 μL of 0.1% acetic acid in acetonitrile. A single 12-point calibration curve was prepared by first serially diluting (3-fold) a 40-μg/mL stock solution of the test compound in acetonitrile. Naive CD-1 mouse plasma (20 μL) was then added to each standard solution (200 μL). A stock solution of the internal standard (Labetalol; 180 μL of 0.1 μg/mL in acetonitrile) was subsequently added to each standard and sample solution, for a total volume of 400 μL. Samples were vortex-mixed for 5 minutes and spun in an Allegra X-12R centrifuge (Beckman Coulter, Fullerton, Calif.) for 15 minutes at approximately 1,500×g at 4° C. A 100-μL aliquot of each supernatant was transferred via a 550 μL Personal Pipettor (Apricot Designs, Monrovia, Calif.) to 96-well plates and diluted 1:1 with HPLC grade water. The resulting plates were sealed with plate mats and analyzed by LC-MS/MS.
# The LC-MS/MS system was comprised of an HTC-PAL autosampler (Leap Technologies, Inc., Carrboro, N.C.), an HP1100 HPLC (Agilent Technologies Inc., Santa Clara, Calif.), and an API4000 triple quadrupole mass spectrometer (Applied Biosystems, Foster City, Calif.). Chromatographic retention of the analyte and internal standard was achieved using a Betasil Phenyl-Hexyl column (2.1×30 mm, 3 μm particle size, Thermo Scientific) in conjunction with gradient conditions using mobile phases A (aqueous 0.1% formic acid and 1% IPA) and B (0.1% formic acid in acetonitrile). The total run time, including re-equilibration time, for a single injection was 3.5 minutes. Mass spectrometric detection of the analytes was accomplished using ESI+ ionization mode. Ion current was optimized during infusion of a stock solution of the test compound. Analyte responses were measured by multiple reaction monitoring (MRM) of transitions unique to each compound.
# Data were acquired and processed using the Applied Biosystems Analyst software (version 1.4.2). Calibration was achieved by plotting the peak area ratios of analyte to internal standard as a function of the normal concentrations of standard samples. A calibration model was generated by quadratic regression of the calibration curve with a weighting factor of 1/x. The model was used to calculate the concentrations in all samples. The lower limit of quantitation (LLOQ) for this analysis was in the single-digit μg/mL range (either 2.03 or 6.10 μg/mL).
# Pharmacokinetic parameters were calculated by established non-compartmental methods using an in-house Excel® (Microsoft Corporation, Redmond, Wash.) macro, PK Toolbox version 2.0. […]
row,AUC,Compound
1,10000 to 20000 ng·h/mL,"Cc1ncccc1Oc1cc(Sc2ccccn2)cnc1Nc1nc([C@H](O)CO)ns1.Cl [Example 134, (S)-1-(5-(3-(2-methylpyridin-3-yloxy)-5-(pyridin-2-ylthio)pyridin-2-ylamino)-1,2,4-thiadiazol-3-yl)ethane-1,2-diol hydrochloride]"
2,5000 to 10000 ng·h/mL,"Cc1ccc(Oc2cc(Sc3ccccn3)cnc2Nc2nc([C@H](O)CO)ns2)c(C)n1.Cl [Example 135, (S)-1-(5-(3-(2,6-dimethylpyridin-3-yloxy)-5-(pyridin-2-ylthio)pyridin-2-ylamino)-1,2,4-thiadizol-3-yl)ethane-1,2-diol hydrochloride]"
3,10000 to 20000 ng·h/mL,"Cc1ncccc1Oc1cc(SCC2CC2)cnc1Nc1nc([C@H](O)CO)ns1.Cl [Example 136, (S)-1-(5-(5-(cyclopropylmethylthio)-3-(2-methylpyridin-3-yloxy)pyridin-2-ylamino)-1,2,4-thiadizol-3-yl)ethane-1,2-diol hydrochloride]"
4,5000 to 10000 ng·h/mL,CCc1ncccc1Oc1cc(Sc2ccccn2)cnc1Nc1nc([C@H](O)CO)ns1 [Example 137]
5,1000 to 5000 ng·h/mL,"COCCCSc1cnc(Nc2nc([C@H](O)CO)ns2)c(Oc2cccnc2C)c1.Cl [Example 138, (S)-1-(5-(5-(3-methoxypropylthio)-3-(2-methylpyridin-3-yloxy)-pyridin-2-ylamino)-1,2,4-thiadizol-3-yl)ethane-1,2-diol hydrochloride]"
6,> 20000 ng·h/mL,"CCn1nccc1Oc1cc(Sc2ccccn2)cnc1Nc1nc([C@H](O)CO)ns1.Cl [Example 139, (S)-1-(5-(3-(1-Ethyl-1H-pyrazol-5-yloxy)-5-(pyridin-2-ylthio)pyridin-2-ylamino)-1,2,4-thiadiazol-3-yl)ethane-1,2-diol hydrochloride]"
7,> 20000 ng·h/mL,"CCn1nccc1Oc1cc(Sc2ccccn2)cnc1Nc1nc([C@H](O)C(C)(C)O)ns1.Cl [Example 140, (S)-1-(5-(3-(1-ethyl-1H-pyrazol-5-yloxy)-5-(pyridin-2-ylthio)pyridin-2-ylamino)-1,2,4-thiadiazol-3-yl)-2-methylpropane-1,2-diol]"
8,1000 to 5000 ng·h/mL,"Cc1cccnc1Sc1cnc(Nc2nc([C@H](O)CO)ns2)c(Oc2cccnc2C)c1.Cl [Example 141, (S)-1-(5-(5-(3-methylpyridin-2-ylthio)-3-(2-methylpyridin-3-yloxy)pyridin-2-ylamino)-1,2,4-thiadiazol-3-yl)ethane-1,2-diol hydrochloride]"
9,1000 to 5000 ng·h/mL,"Cc1ccnc(C)c1Oc1cc(Sc2ccccn2)cnc1Nc1nc([C@H](O)CO)ns1.Cl [Example 142, (S)-1-(5-(3-(2,4-dimethylpyridin-3-yloxy)-5-(pyridin-2-ylthio)pyridin-2-ylamino)-1,2,4-thiadiazol-3-yl)ethane-1,2-diol hydrochloride]"
10,> 20000 ng·h/mL,"Cc1ncccc1Oc1cc(Sc2ccccn2)cnc1Nc1nc([C@H](O)C(C)(C)O)ns1.Cl [Example 143, (S)-2-methyl-1-(5-(3-(2-methylpyridin-3-yloxy)-5-(pyridin-2-ylthio)pyridin-2-ylamino)-1,2,4-thiadiazol-3-yl)propane-1,2-diol hydrochloride]"
11,5000 to 10000 ng·h/mL,"COCCSc1cnc(Nc2nc([C@H](O)CO)ns2)c(Oc2cccnc2C)c1.Cl [Example 144, (S)-1-(5-(5-(2-methoxyethylthio)-3-(2-methylpyridin-3-yloxy)pyridin-2-ylamino)-1,2,4-thiadiazol-3-yl)ethane-1,2-diol hydrochloride]"
12,5000 to 10000 ng·h/mL,"CCc1ncccc1Oc1cc(Sc2ccccn2)cnc1Nc1nc([C@H](O)[C@@H](O)COC)ns1.Cl [Example 145, (1S,2S)-1-(5-(3-(2-ethylpyridin-3-yloxy)-5-(pyridin-2-ylthio)pyridin-2-ylamino)-1,2,4-thiadiazol-3-yl)-3-methoxypropane-1,2-diol hydrochloride]"
13,10000 to 20000 ng·h/mL,"Cc1nn(C)c(C)c1Oc1cc(Sc2ccccn2)cnc1Nc1nc([C@H](O)C(C)(C)O)ns1.Cl [Example 146, (S)-2-methyl-1-(5-(5-(pyridin-2-ylthio)-3-(1,3,5-trimethyl-1H-pyrazol-4-yloxy)pyridin-2-ylamino)-1,2,4-thiadiazol-3-yl)propane-1,2-diol hydrochloride]"
14,1000 to 5000 ng·h/mL,"Cc1nn(C)c(C)c1Oc1cc(Sc2ccccn2)cnc1Nc1nc([C@H](O)CO)ns1.Cl [Example 147, (S)-1-(5-(5-(pyridin-2-ylthio)-3-(1,3,5-trimethyl-1H-pyrazol-4-yloxy)pyridin-2-ylamino)-1,2,4-thiadiazol-3-yl)ethane-1,2-diol hydrochloride]"
15,1000 to 5000 ng·h/mL,"COCCSc1cnc(Nc2nc([C@H](O)CO)ns2)c(Oc2c(C)nn(C)c2C)c1.Cl [Example 148, (S)-1-(5-(5-(2-methoxyethylthio)-3-(1,3,5-trimethyl-1H-pyrazol-4-yloxy)pyridin-2-ylamino)-1,2,4-thiadiazol-3-yl)ethane-1,2-diol hydrochloride]"
16,5000 to 10000 ng·h/mL,"Cc1ncccc1Oc1cc(Sc2ccccn2)cnc1Nc1nc([C@@H](O)CO)ns1 [Example 149, (R)-1-(5-(3-(2-methylpyridin-3-yloxy)-5-(pyridin-2-ylthio)pyridin-2-ylamino)-1,2,4-thiadiazol-3-yl)ethane-1,2-diol]"
17,10000 to 20000 ng·h/mL,"Cc1ncccc1Oc1cc(Sc2ccccn2)cnc1Nc1nc([C@](C)(O)CO)ns1.Cl [Example 150, (S)-2-(5-(3-(2-methylpyridin-3-yloxy)-5-(pyridin-2-ylthio)pyridin-2-ylamino)-1,2,4-thiadiazol-3-yl)propane-1,2-diol hydrochloride]"
18,> 20000 ng·h/mL,"Cc1ncccc1Oc1cc(Sc2ccccn2)cnc1Nc1nc([C@@](C)(O)CO)ns1.Cl [Example 151, (R)-2-(5-(3-(2-methylpyridin-3-yloxy)-5-(pyridin-2-ylthio)pyridin-2-ylamino)-1,2,4-thiadiazol-3-yl)propane-1,2-diol hydrochloride]"
